Assay results from US4029688A, “Carbamic pesticidal compositions” (priority 1974, dated 1977).
≈ marks a conversion by molar mass, not a printed value.

How the values were obtained:
Assay type in all cases: in vivo
[1] = system: bean aphid (Aphis fabae Scop.); experiment: Bean Aphid Foliage Spray Test; parameters: key to Aphid: C: no control; B: partial control; A: excellent control; settings: for Aphid: foliage spray, 500 parts per million, 24 hour; for LC50: Aphis fabae, foliar, Table II, side by side comparison, read-out: Aphids LD50
Experimental: (§1) Suspensions of the test compounds were prepared by dissolving one gram of compound in 50 milliliters of acetone in which had been dissolved 0.1 gram (10 percent of the weight of compound) of an alkylphenoxy polyethoxyethanol surfactant, as an emulsifying or dispersing agent. The resulting solution was mixed into 150 milliliters of water to give roughly 200 milliliters of a suspension containing the compound in finely divided form. The thus-prepared stock suspension contained 0.5 percent by weight of compound. The test concentrations in parts per million by weight employed in the tests described hereinbelow were obtained by appropriate dilutions of the stock suspension with water. The test procedures were as follows:
Adults and nymphal stages of the bean aphid (Aphis fabae Scop.) reared on potted dwarf nasturtium plants at 65°-70° F. and 50-70 percent relative humidity, constituted the test insects. For testing purposes, the number of aphids per pot was standardized to 100-150 by trimming plants containing excess aphids.
The test compounds were formulated by diluting the stock suspension with water to give a suspension containing 500 parts of test compound per million parts of final formulation.
The potted plants (one pot per compound tested) infested with 100-150 aphids, were placed on a revolving turntable and sprayed with 100-110 milliliters of test compound formulation by use of a DeVilbiss spray gun set at 40 psig. air pressure. This application, which lasted 25 seconds, was sufficient to wet the plants to run-off. As a control, 100-110 milliliters of a water-acetone-emulsifier solution containing no test compound were also sprayed on infested plants. After spraying, the pots were placed on their sides on a sheet of white standard mimeograph paper which had been previously ruled to facilitate counting. Temperature and humidity in the test room during the 24 hour holding period were 65°-70° F. and 50-70 percent, respectively. Aphids which fell onto the paper and were unable to remain standing after being uprighted were considered dead. Aphids remaining on the plants were observed closely for movement and those which were unable to move the length of the body upon stimulation by prodding were considered dead. Percent mortality was recorded for various concentration levels.
(§2) In the tests described above, the pesticidal activity of the compounds against aphid, mite, Southern Armyworm, Bean Beetle, house fly and nematode was rated as follows:
(§3) Comparison tests were conducted to assess the biological and chemical properties of certain representative species of the claimed invention in relation to their corresponding N-methyl carbamate compositions. The test procedures described above were employed in these experiments in order to determine the LD50 (number of parts per million of active ingredients required to achieve fifty percent mortality of the insects tested) for each of the compositions tested. In the case of the aphid and mite tests a side by side comparison was made of the N-methyl carbamate composition versus the corresponding perhalomethylsulfenyl derivative.

[2] = system: house flies (Musca domestica, L.); experiment: Fly Bait Test; parameters: key to Fly: C: no control; B: partial control; A: excellent control; settings: for Fly: bait, 500 parts per million, twenty-four hours; for LC50: Musca domestica, Table II, read-out: Housefly LD50
Experimental: as §1
Four to six day old adult house flies (Musca domestica, L.), reared according to the specifications of the Chemical Specialties Manufacturing Association (Blue Book, McNair-Dorland Co., N. Y. 1954; pages 243-244, 261) under controlled conditions of 80°±5° F. and 50±5 percent relative humidity, were the test insects. The flies were immobilized by anesthetizing with carbon dioxide and twenty-five immobilized individuals, males and females, were transferred to a cage consisting of a standard food strainer about five inches in diameter which was inverted over a wrapping-paper-covered surface. The test compounds were formulated by diluting the stock suspension with a 10 percent (by weight) sugar solution to give a suspension containing 500 parts of test compound per million parts of final formulation, by weight. Ten milliliters of the test formulation were added to a souffle cup containing a one-inch square of an absorbent cotton pad. This bait cup was introduced and centered on the blotting paper under the food strainer prior to admitting the anesthetized flies. The caged flies were allowed to feed on the bait for twenty-four hours, at a temperature of 80°±5° F. and the relative humidity of 50±5 percent.
as §2, §3

[3] = system: Mexican bean beetle (Epilachna varivestis, Muls.); experiment: Mexican Bean Beetle Leaf Spray Test; parameters: key to Beetle: C: no control; B: partial control; A: excellent control; settings: for Beetle: leaf spray, 500 parts per million, three days; for LC50: Epilachna varivestis, Table II, read-out: Beetle LD50
Experimental: as §1
Fourth instar larvae of the Mexican bean beetle (Epilachna varivestis, Muls.), reared on Tendergreen bean plants at a temperature of 80°±5° F. and 50±5 percent relative humidity, were the test insects.
The test compounds were formulated by diluting the stock suspension with water to give a suspension containing 500 parts of test compound per million parts of final formulation. Potted Tendergreen bean plants of standard height and age were placed on a revolving turntable and sprayed with 100-110 milliliters of test compound formulation by use of a DeVilbiss spray gun set at 10 psig air pressure. This application, which lasted 25 seconds, was sufficient to wet plants to run-off. As a control, 100-110 milliliters of a water-acetone-emulsifier solution containing no test compound were also sprayed on infested plants. When dry, the paired leaves were separated and each was placed in a 9 centimeter Petri dish lined with moistened filter paper. Five randomly selected larvae were introduced into each dish, and the dishes were closed. The closed dishes were labeled and held at a temperature of 80°±5° F. for three days. Although the larvae could easily consume the leaf within 24 to 48 hours, no more food was added. Larvae which were unable to move the length of the body, even upon stimulation, were considered dead.
as §2, §3

[4] = system: root-knot nematode, Meloidogyne incognita var. acrita; experiment: Nematocide Test; parameters: key: C: no control; B: partial control; A: excellent control; settings: 3.33 m.g. per jar, galling of cucumber rated after approximately 3 weeks
Experimental: The test organism used was the infective migratory larvae of the root-knot nematode, Meloidogyne incognita var. acrita, reared in the greenhouse on roots of cucumber plants. Infected plants were removed from the culture, and the roots are chopped very finely. A small amount of this inoculum was added to a pint jar containing approximately 180 cc. of soil. The jars were capped and incubated for one week at room temperature. During this period eggs of the nematode were hatched, and the larval forms migrated into the soil.
Ten ml. of the test formulation were added to each of the two jars for each dosage tested. Following the addition of chemical, the jars were capped, and the contents thoroughly mixed on a ball mill for 5 minutes.
The test compounds were formulated by a standard procedure of solution in acetone addition of an emulsifier, and dilution with water. Primary screening tests were conducted at 3.33 m.g. of the test compound per jar.
The jars were left capped at room temperature for a period of 48 hours, and the contents then transferred to 3 inch pots. Subsequently, the pots were seeded to cucumber as an indicator crop and placed in the greenhouse where they were cared for in the normal fashion for approximately 3 weeks.
The cucumber plants were then taken from the pots, the soil removed from the roots, and the amount of galling visually rated.
In the tests described above, the pesticidal activity of the compounds against aphid, mite, Southern Armyworm, Bean Beetle, house fly and nematode was rated as follows: […]

`CCOC(=O)CSC(C)=NOC(=O)N(C)SC(Cl)(Cl)Cl` was tested, and the Aphid [1] was “C”, the Fly [2] was “C” and the Beetle [3] was “C”. The Nematode [4] was “C”.

`CSC(=NOC(=O)N(C)SC(Cl)(Cl)Cl)C(C)(SC)SC` was tested, and the Aphid [1] was “A”, the Fly [2] was “A” and the Beetle [3] was “A”. For the same compound, the Nematode [4] was “C”.

`CC(=NOC(=O)N(C)SC(Cl)(Cl)Cl)C(C)(C)N=[N+]=[N-]` was tested, and the Aphid [1] was “A”, the Fly [2] was “A” and the Beetle [3] was “A”. For the same compound, the Nematode [4] was “C”.

With `CCOC(=O)CSC(C)(C)C=NOC(=O)N(C)SC(Cl)(Cl)Cl` the Aphid [1] was “A”, the Fly [2] was “C” and the Beetle [3] was “B”. The Nematode [4] was “C”.

For `CSCC(=NOC(=O)N(C)SC(Cl)(Cl)Cl)C(C)(C)C`, the Aphid [1] was “A”, the Fly [2] was “B” and the Beetle [3] was “A”. The Nematode [4] was “C”.

In the case of `CN(SC(Cl)(Cl)Cl)C(=O)ON=CC(C)(C)S(C)(=O)=O` [2-Methyl-2-methylsulfonylpropionaldehyde O-(N-methyl-N-trichloromethanesulfenylcarbamoyl)oxime], the Aphid [1] is reported as “A”, the Fly [2] is reported as “A” and the Beetle [3] is reported as “A”. The Nematode [4] was “C”.

For `CC(=NOC(=O)N(C)SC(Cl)(Cl)Cl)C(C)(C)C#N`, the Aphid [1] was “A”, the Fly [2] was “A” and the Beetle [3] was “A”. The Nematode [4] was “C”.

With `CN(SC(Cl)(Cl)Cl)C(=O)ON=CC(C)(C)[S+](C)[O-]` (stereo not shown) [2-Methyl-2-methylsulfinylpropionaldehyde O-(N-methyl-N-trichloromethanesulfenylcarbamoyl)oxime] the Aphid [1] was “A”, the Fly [2] was “A” and the Beetle [3] was “A”. For the same compound, the Nematode [4] was “A”.

With `CN(SC(F)(F)F)C(=O)ON=CC(C)(C)C#N` [drawing 12] the Aphid [1] was “A”, the Fly [2] was “A” and the Beetle [3] was “A”. The Nematode [4] was “A”.

For `CC(CSC(C)(C)C)=NOC(=O)N(C)SC(Cl)(Cl)Cl`, the Aphid [1] was “A”, the Fly [2] was “C” and the Beetle [3] was “C”. For the same compound, the Nematode [4] was “C”.

`CCOC(=O)CCSC(C)=NOC(=O)N(C)SC(Cl)(Cl)Cl` was tested, and the Aphid [1] was “B”, the Fly [2] was “B” and the Beetle [3] was “B”. The Nematode [4] was “C”.

In the case of `CC(C[N+](=O)[O-])=NOC(=O)N(C)SC(Cl)(Cl)Cl`, the Aphid [1] is reported as “C”, the Fly [2] is reported as “A” and the Beetle [3] is reported as “B”. The Nematode [4] was “C”.

In the case of `CSCC(C)=NOC(=O)N(C)SC(Cl)(Cl)Cl`, the Aphid [1] is reported as “B”, the Fly [2] is reported as “A” and the Beetle [3] is reported as “C”. The Nematode [4] was “C”.

In the case of `CCOC(=O)C(C)SC(C)(C)C=NOC(=O)N(C)SC(Cl)(Cl)Cl` (stereo not shown), the Aphid [1] is reported as “A”, the Fly [2] is reported as “C” and the Beetle [3] is reported as “C”. For the same compound, the Nematode [4] was “C”.

`CC(=NOC(=O)N(C)SC(Cl)(Cl)Cl)C(C)(C)[N+](=O)[O-]` was tested, and the Aphid [1] was “A”, the Fly [2] was “A” and the Beetle [3] was “A”. For the same compound, the Nematode [4] was “A”.

With `CN(SC(Cl)(Cl)Cl)C(=O)ON=CC(C)(C)C#N` [2-Methyl-2-cyanopropionaldehyde O-(N-methyl-N-trichloromethanesulfenylcarbamoyl)oxime] the LC50 [1] was 23 µg/mL (≈ 72.2 µM), the Aphid [1] was “A” and the LC50 [2] was 7 µg/mL (≈ 22 µM). For the same compound, the Fly [2] was “A”, the LC50 [3] was 45 µg/mL (≈ 141 µM) and the Beetle [3] was “A”. For the same compound, the Nematode [4] was “C”.

In the case of `CC(=NOC(=O)N(C)SC(Cl)(Cl)Cl)SCCC#N` [1-(2-Cyanoethylthio)acetaldehyde O-(N-methyl-N-trichloromethanesulfenylcarbamoyl)oxime], the LC50 [1] is reported as 10 µg/mL (≈ 28.5 µM), the Aphid [1] is reported as “A” and the LC50 [2] is reported as 3 µg/mL (≈ 8.55 µM). The Fly [2] was “A”, the LC50 [3] was 15 µg/mL (≈ 42.8 µM) and the Beetle [3] was “A”. The Nematode [4] was “C”.

`COC(C)(C)C(Cl)=NOC(=O)N(C)SC(Cl)(Cl)Cl` was tested, and the Aphid [1] was “A”, the Fly [2] was “A” and the Beetle [3] was “A”. For the same compound, the Nematode [4] was “A”.

`CN(SC(Cl)(Cl)Cl)C(=O)ON=CC(C)(C)[N+](=O)[O-]` [2-Methyl-2-nitropropionaldehyde O-(N-methyl-N-trichloromethanesulfenylcarbamoyl)oxime] was tested, and the LC50 [1] was 6 µg/mL (≈ 17.7 µM), the Aphid [1] was “A” and the LC50 [2] was 5 µg/mL (≈ 14.8 µM). The Fly [2] was “A”, the LC50 [3] was 17 µg/mL (≈ 50.2 µM) and the Beetle [3] was “A”. For the same compound, the Nematode [4] was “A”.
